Source: PubChem BioAssay AID330 (DTP/NCI, 2004)
Values joined by “and” are separate entries in the source; they are usually repeats but may differ in a detail not shown here. Equal values may be shown once. Toxic doses and inconclusive results are not listed. How the source made its calls: active means survival T/C of 150% or more; inactive means T/C below 125% in these data.

System: P388 leukemia ip, CD2F1 mice, survival T/C
Assay: NCI In Vivo Anticancer Drug Screen. Data for tumor model P388 Leukemia (intraperitoneal) in CD2F1 (CDF1) mice
Settings: endpoint: median survival time, higher = longer survival
Summary of the method: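 Mice carrying the transplanted tumor received test compound or vehicle. Survival was recorded in each group, and the value is the treated-group measurement divided by that of the vehicle-treated control group.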

[1] = dose: 100.0 mg/kg/injection, schedule: Q01DX001 (ip), vehicle: saline with Tween-80
[2] = dose: 200.0 mg/kg/injection, schedule: Q01DX001 (ip), vehicle: saline with Tween-80
[3] = dose: 400.0 mg/kg/injection, schedule: Q01DX001 (ip), vehicle: saline with Tween-80
[4] = dose: 50.0 mg/kg/injection, schedule: Q01DX005 (ip), vehicle: Klucel (hydroxypropylcellulose) (HPC)
[5] = dose: 50.0 mg/kg/injection, schedule: Q01DX005 (ip), vehicle: saline
[6] = dose: 50.0 mg/kg/injection, schedule: Q01DX009 (ip), vehicle: saline
[7] = dose: 100.0 mg/kg/injection, schedule: Q01DX005 (ip), vehicle: saline
[8] = dose: 200.0 mg/kg/injection, schedule: Q01DX005 (ip), vehicle: saline
[9] = dose: 50.0 mg/kg/injection, schedule: Q01DX009 (ip), vehicle: saline with Tween-80
[10] = dose: 100.0 mg/kg/injection, schedule: Q01DX009 (ip), vehicle: saline with Tween-80
[11] = dose: 200.0 mg/kg/injection, schedule: Q01DX009 (ip), vehicle: saline with Tween-80
[12] = dose: 60.0 mg/kg/injection, schedule: Q01DX005 (ip), vehicle: saline with Tween-80
[13] = dose: 120.0 mg/kg/injection, schedule: Q01DX005 (ip), vehicle: saline with Tween-80
[14] = dose: 240.0 mg/kg/injection, schedule: Q01DX005 (ip), vehicle: saline with Tween-80
[15] = dose: 6.25 mg/kg/injection, schedule: Q01DX009 (ip), vehicle: saline
[16] = dose: 12.5 mg/kg/injection, schedule: Q01DX009 (ip), vehicle: saline
[17] = dose: 25.0 mg/kg/injection, schedule: Q01DX009 (ip), vehicle: saline
[18] = dose: 100.0 mg/kg/injection, schedule: Q01DX005 (ip), vehicle: Klucel (hydroxypropylcellulose) (HPC)
[19] = dose: 200.0 mg/kg/injection, schedule: Q01DX005 (ip), vehicle: Klucel (hydroxypropylcellulose) (HPC)

Measured: T/C

COc1cccc2c1c(=O)c1cc([N+](=O)[O-])ccc1n2C
inactive: [1] 100 % of control | [2] 97 % of control | [3] 86 % of control

CCCCOc1ccc2nc(C)cc(N/N=C/c3ccc(OC)c4ccccc34)c2c1
inactive: dose: 12.5 mg/kg/injection, schedule: Q01DX005 (ip), vehicle: Klucel (hydroxypropylcellulose) (HPC) 94 % of control | dose: 25.0 mg/kg/injection, schedule: Q01DX005 (ip), vehicle: Klucel (hydroxypropylcellulose) (HPC) 94 % of control | [4] 89 % of control and 97 % of control

CC(N)C(=O)NC(CC(N)=O)C(=O)O (stereo not given)
inactive: [5] 105 % of control | [6] 101 % of control | [7] 110 % of control | dose: 100.0 mg/kg/injection, schedule: Q01DX009 (ip), vehicle: saline 94 % of control | [8] 94 % of control | dose: 200.0 mg/kg/injection, schedule: Q01DX009 (ip), vehicle: saline 93 % of control

COc1ccc(C2CC(C)(N3CCCC3)Oc3cc4c(cc32)OCO4)c(OC)c1 (stereo not given)
inactive: dose: 50.0 mg/kg/injection, schedule: Q01DX005 (ip), vehicle: saline with Tween-80 99 % of control | dose: 100.0 mg/kg/injection, schedule: Q01DX005 (ip), vehicle: saline with Tween-80 96 % of control | dose: 200.0 mg/kg/injection, schedule: Q01DX005 (ip), vehicle: saline with Tween-80 86 % of control

CC1(C)C(C#N)C(=O)N(Cc2ccccc2)C(=O)C1C#N (stereo not given)
inactive: [9] 100 % of control | [10] 104 % of control | [11] 113 % of control

COC12CC(=O)C(C(C)=O)=C(O)C1(C)c1c(O)c(C)c(O)c(C(C)=O)c1O2 (stereo not given)
inactive: dose: 6.25 mg/kg/injection, schedule: Q01DX009 (ip), vehicle: gum acacia 105 % of control and 108 % of control | dose: 12.5 mg/kg/injection, schedule: Q01DX009 (ip), vehicle: gum acacia 109 % of control and 111 % of control | dose: 25.0 mg/kg/injection, schedule: Q01DX009 (ip), vehicle: gum acacia 111 % of control and 115 % of control | dose: 50.0 mg/kg/injection, schedule: Q01DX009 (ip), vehicle: gum acacia 107 % of control and 113 % of control

CNC1CCCc2c(O)cccc21 (stereo not given)
inactive: dose: 50.0 mg/kg/injection, schedule: Q04DX003 (ip), vehicle: Klucel (hydroxypropylcellulose) (HPC) 99 % of control | dose: 100.0 mg/kg/injection, schedule: Q04DX003 (ip), vehicle: Klucel (hydroxypropylcellulose) (HPC) 101 % of control

CC(=O)/C(=C/c1ccc(OC2OC(CO)C(O)C(O)C2O)cc1)C(=O)CCN(C)C (stereo not given)
inactive: [5] 107 % of control | [7] 93 % of control | [8] 100 % of control

CC(C)(C)c1ccc(-c2cc3nc(-c4ccccc4)cc(=O)n3[nH]2)cc1
inactive: [12] 100 % of control | [13] 98 % of control | [14] 98 % of control

CCCCCCCCOC(=O)COc1ccc(Cl)cc1Cl
inactive: dose: 50.0 mg/kg/injection, schedule: Q01DX001 (ip), vehicle: Klucel (hydroxypropylcellulose) (HPC) 113 % of control | dose: 50.0 mg/kg/injection, schedule: Q01DX001 (ip), vehicle: saline with Tween-80 98 % of control | dose: 100.0 mg/kg/injection, schedule: Q01DX001 (ip), vehicle: Klucel (hydroxypropylcellulose) (HPC) 109 % of control | [1] 100 % of control | dose: 200.0 mg/kg/injection, schedule: Q01DX001 (ip), vehicle: Klucel (hydroxypropylcellulose) (HPC) 122 % of control | [2] 105 % of control

CC1CCC(C)N1CCCCN1C(C)CCC1C (stereo not given)
inactive: dose: 3.13 mg/kg/injection, schedule: Q01DX009 (ip), vehicle: saline 104 % of control and 97 % of control | [15] 100 % of control and 104 % of control | [16] 100 % of control and 106 % of control | [17] 96 % of control

Cc1nn(C(N)=S)c(C)c1N=Nc1ccc(Cl)cc1Cl
inactive: dose: 50.0 mg/kg/injection, schedule: Q04DX002 (ip), vehicle: saline with Tween-80 101 % of control and 105 % of control | dose: 600.0 mg/kg/injection, schedule: Q04DX002 (ip), vehicle: saline with Tween-80 90 % of control

CCCNC1=C(C)C(=O)C2=C(C1=O)[C@H](COC(N)=O)[C@]1(OC)[C@@H]3N[C@@H]3CN21
inactive: dose: 6.25 mg/kg/injection, schedule: Q01DX009 (ip), vehicle: saline sonified 86 % of control | dose: 12.5 mg/kg/injection, schedule: Q04DX003 (ip), vehicle: saline with Tween-80 86 % of control

Nc1nc(Nc2ccc(C3=NCCN3)cc2)nc(Nc2ccc(C3=NCCN3)cc2)n1
inactive: [15] 122 % of control | dose: 6.25 mg/kg/injection, schedule: Q01DX009 (ip), vehicle: suspension in saline 108 % of control

COc1cc(/C=C/C=C(C(=O)O)C(=O)O)ccc1OCc1ccccc1
inactive: [4] 100 % of control | [18] 98 % of control | [19] 92 % of control

CCOc1ccccc1C(=O)Nc1cc(C)nn1-c1ccccc1
inactive: [1] 102 % of control | [2] 100 % of control | [3] 106 % of control

NC(=O)NN=C(C(F)(F)F)C(F)(F)F
inactive: [9] 110 % of control | [10] 101 % of control

C1CC[N-]CC1.C1CC[N-]CC1.[Cl][Pt+2]([Cl])([Cl])[Cl]
inactive: dose: 264.0 mg/kg/injection, schedule: Q01DX009 (ip), vehicle: saline with Tween-80 86 % of control

c1ccc2c(CC3=NCCN3)noc2c1
inactive: [16] 98 % of control | [17] 105 % of control | [6] 103 % of control and 107 % of control

CNC(=O)OCc1ncn(-c2ccccc2)c1COC(=O)NC
inactive: dose: 12.5 mg/kg/injection, schedule: Q01DX005 (ip), vehicle: distilled water + Tween-80 99 % of control | dose: 25.0 mg/kg/injection, schedule: Q01DX005 (ip), vehicle: distilled water + Tween-80 95 % of control | dose: 50.0 mg/kg/injection, schedule: Q01DX005 (ip), vehicle: distilled water + Tween-80 101 % of control | dose: 100.0 mg/kg/injection, schedule: Q01DX005 (ip), vehicle: distilled water + Tween-80 101 % of control | dose: 200.0 mg/kg/injection, schedule: Q01DX005 (ip), vehicle: distilled water + Tween-80 99 % of control

CN(C)c1ccc(N2C(N)=NC(N)=NC2(C)C)cc1
inactive: dose: 15.0 mg/kg/injection, schedule: Q01DX005 (ip), vehicle: saline 94 % of control | dose: 30.0 mg/kg/injection, schedule: Q01DX005 (ip), vehicle: saline 95 % of control | dose: 60.0 mg/kg/injection, schedule: Q01DX005 (ip), vehicle: saline 98 % of control and 95 % of control

CC(C)(C)c1cc(C=O)cc(C(C)(C)C)c1O
inactive: dose: 25.0 mg/kg/injection, schedule: Q01DX009 (ip), vehicle: saline with Tween-80 99 % of control | [9] 100 % of control | [10] 96 % of control | [11] 91 % of control

O=S(=O)(Cl)c1ccccc1 (tested in a mixture with another compound)
inactive: [12] 104 % of control | [13] 99 % of control | [14] 99 % of control

N#Cc1nc(CC(=O)c2ccccn2)c(CC(=O)c2ccccn2)nc1C#N
inactive: [12] 111 % of control | [13] 93 % of control

N=C(N)c1ccc2cc(/C=C/c3cc4ccc(C(=N)N)cc4o3)oc2c1
inactive: dose: 100.0 mg/kg/injection, schedule: Q04DX003 (ip), vehicle: suspension in saline 112 % of control | dose: 200.0 mg/kg/injection, schedule: Q04DX003 (ip), vehicle: suspension in saline 120 % of control

COc1ccc2c(c1)S(=O)(=O)C(c1ccccc1)=CC2=O
inactive: [4] 114 % of control | [18] 115 % of control | [19] 123 % of control
